According to patent publication US5866567A, “Diazepinones, their production and use” (Takeda Chemical Industries, Ltd., priority 1995, dated 1999):

target: T1, Human GnRH receptor (Homo sapiens, UniProt P30968); test: Human GnRH receptor binding inhibition assay (125I-leuprolerin, membrane fraction of CHO cells expressing human GnRH receptors); settings: CHO cell membrane fraction with human GnRH receptors, 25° C., 60 minutes, concentration series, Hill plot, read-out: Binding inhibitory activity (IC50)
T1 construct: expressed in transfected cells; host or cells: CHO (Chinese hamster ovary) cells, membrane fraction
T1 sequence (P30968 1-328): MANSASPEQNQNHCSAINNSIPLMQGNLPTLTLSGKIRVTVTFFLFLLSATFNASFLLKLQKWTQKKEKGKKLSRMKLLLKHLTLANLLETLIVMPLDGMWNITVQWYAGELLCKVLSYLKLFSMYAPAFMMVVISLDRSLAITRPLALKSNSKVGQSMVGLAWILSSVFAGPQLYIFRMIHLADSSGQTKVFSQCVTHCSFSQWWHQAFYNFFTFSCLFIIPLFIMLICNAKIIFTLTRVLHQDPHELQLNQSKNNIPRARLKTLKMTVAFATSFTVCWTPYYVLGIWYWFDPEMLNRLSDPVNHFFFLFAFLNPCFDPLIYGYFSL
Description: Human GnRH receptor binding inhibition assay
(A) Preparation of ^125 I-leuprolerin
Ten (10) μl of 3×10^-4 M aqueous leuprolerin solution and 10 μl of 0.01 mg/ml lactoperoxidase solution were taken in a tube, and 10 μl of Na^125 I solution (37 MBq) was added. After stirring, 10 μl of 0.001% H2 O2 was added and the reaction was conducted at room temperature for 20 minutes. The reaction was stopped by adding 700 μl of 0.05% TFA solution, and the reaction mixture was purified by reversed HPLC. The HPLC parameters are shown below. The retention time of ^125 I-leuprolerin was 26-27 minutes.
Column: TSKgel ODS-80™ CTR (4.6 mm×10 cm)
Eluent: Solvent A (0.05%TFA) Solvent B (40%CH3 CN-0.05%TFA)
Min. 0 (100% Solvent A)--Min. 3 (100% Solvent A)--Min. 7 (50% Solvent A+50% Solvent B)--Min. 40 (100% Solvent B) Elution temperature: room temperature Elution flow rate: 1 ml/min.
CHO cells (10^9 cells) with human GnRH receptors expressed were floated on phosphate-buffered saline containing EDTA (PBS-EDTA) and centrifuged at 100×g for 5 minutes. To the pellet obtained was added 10 ml of a cell homogenate buffer (10 mM NaHCO3, 5 mM EDTA, pH 7.5) and the mixture was homogenized using a Polytron homogenizer. The homogenate was centrifuged at 400×g for 15 minutes and the supernatant was taken in an ultracentrifuge tube and recentrifuged at 100,000×g for 1 hour. The membrane fraction thus obtained as a pellet was suspended in 2 ml of assay buffer and centrifuged at 100,000×g for 1 hour. The membrane fraction recovered was resuspended in 20 ml of assay buffer and the suspension was portioned, stored at -80° C., and thawed when needed.
(C) Determination of the ^125 I-leuprolerin binding inhibition rate
The membrane fraction prepared in Step (B) was diluted with assay buffer to 200 μg/ml and the dilution was portioned into tubes, 188 μl per tube. Then, 2 μl of 2 mM solution of the test compound in 60% DMSO and 10 μl of 38 nM ^125 I-leuprolerin solution in the same solvent were simultaneously added to the tubes. To determine the maximum binding, a test mixture of 2 μl of 60% DMSO and 10 μl of 38 nM ^125 I-leuprolerin solution in the same solvent was prepared. For the determination of nonspecific binding, a test mixture of 2 μl of 100 μM leuprolerin solution in 60% DMSO and 10 μl of 38 nM solution of ^125 I-leuprolerin in the same solvent was also prepared. The mixtures were respectively allowed to react at 25° C. for 60 minutes and the reaction product in each tube was filtered through a poly(ethylene imine)-treated Whatman glass filter (GF-F) under suction. The radioactivity of ^125 I-leuprolerin remaining on the filter was determined using a γ-counter.
Using the measured values, the following equation was calculated to find the binding inhibition rate for each test compound.
Binding inhibition (%)=(TB-SB)/(TB-NSB)×100
[SB: radioactivity with the compound added
TB: maximum bound radioactivity
NBS: nonspecifically bound radioactivity]
Using a concentration series of each test compound, the concentration of the compound which inhibited the binding by 50% (IC50) was calculated by Hill plot.

Compared with `O=C(Nc1ccc(CN2C(=O)[C@H]3CCC[C@H]3N(C(=O)CN3C(=O)c4ccccc4C3=O)c3ccccc32)cc1)OCc1ccccc1` (relative stereo) [Example 1, (3aR*,10aS*)-9-[4-(Benzyloxycarbonylamino)benzyl]-4-(phthalimidoacetyl)-2,3,3a,4,9,10a-hexahydrobenzo[b]cyclopenta[e][1,4]diazepin-10(1H)-one], `O=C(NCc1ccccc1)Nc1ccc(CN2C(=O)[C@H]3CCC[C@H]3N(C(=O)CN3C(=O)c4ccccc4C3=O)c3ccccc32)cc1` (relative stereo) [Example 25, (3aR*,10aS*)-9-[4-(3-benzylureido)benzyl]-4-(phthalimidoacetyl)-2,3,3a,4,9,10a-hexahydrobenzo[b]cyclopenta[e][1,4]diazepin-10(1H)-one] is 3.3-fold lower in IC50: 100 nM for the first, 30 nM for the second.

First: O=C(Nc1ccc(CN2C(=O)[C@H]3CCC[C@H]3N(C(=O)CN3C(=O)C4=C(CCCC4)C3=O)c3ccccc32)cc1)OCc1ccccc1 (relative stereo) [Example 2, (3aR*,10aS*)-9-[4-(Benzyloxycarbonylamino)benzyl]-4-(2H-1,3-dioxo-1,3,4,5,6,7-hexahydroisoindole-2-acetyl)-2,3,3a,4,9,10a-hexahydrobenzo[b]cyclopenta[e][1,4]diazepin-10(1H)-one]
Second: O=C(NCc1ccccc1)Nc1ccc(CN2C(=O)[C@H]3CCC[C@H]3N(C(=O)CN3C(=O)C4=C(CCCC4)C3=O)c3ccccc32)cc1 (relative stereo) [Example 26, (3aR*,10aS*)-9-[4-(3-Benzylureido)benzyl]-4-(2H-1,3-dioxo-1,3,4,5,6,7-hexahydroisoindole-2-acetyl)-2,3,3a,4,9,10a-hexahydrobenzo[b]cyclopenta[e][1,4]diazepin-10(1H)-one]
The IC50 of the first is 1.8-fold higher: 70 nM for the first, 40 nM for the second.

`O=C(COc1ccccc1)Nc1ccc(CN2C(=O)[C@H]3CCC[C@H]3N(C(=O)CN3C(=O)c4ccccc4C3=O)c3ccccc32)cc1` (relative stereo) [Example 18, (3aR*,10aS*)-9-[4-(Phenoxyacetamido)benzyl]-4-(phthalimidoacetyl)-2,3,3a,4,9,10a-hexahydrobenzo[b]cyclopenta[e][1,4]diazepin-10(1H)-one] and `O=C(CCc1ccccc1)Nc1ccc(CN2C(=O)[C@H]3CCC[C@H]3N(C(=O)CN3C(=O)c4ccccc4C3=O)c3ccccc32)cc1` (relative stereo) [Example 17, (3aR*,10aS*)-9-[4-(3-Phenylpropionamido)benzyl]-4-(phthalimidoacetyl)-2,3,3a,4,9,10a-hexahydrobenzo[b]cyclopenta[e][1,4]diazepin-10(1H)-one] are within 1.5-fold of each other in IC50: 600 nM for the first, 500 nM for the second.

First: C[C@H](NC(=O)Nc1ccc(CN2C(=O)[C@H]3CCC[C@H]3N(C(=O)CN3C(=O)c4ccccc4C3=O)c3ccccc32)cc1)c1ccccc1 (relative stereo) [Example 28, (3aR*,10aS*)-9-[4-[3-((S)-1-Phenylethyl)ureido]-benzyl]-4-(phthalimidoacetyl)-2,3,3a,4,9,10a-hexahydrobenzo[b]cyclopenta[e][1,4]diazepin-10(1H)-one]
Second: C[C@@H](NC(=O)Nc1ccc(CN2C(=O)[C@H]3CCC[C@H]3N(C(=O)CN3C(=O)c4ccccc4C3=O)c3ccccc32)cc1)c1ccccc1 (relative stereo) [Example 27, (3aR*,10aS*)-9-[4-[3-((R)-1-Phenylethyl)ureido]-benzyl]-4-(phthalimidoacetyl)-2,3,3a,4,9,10a-hexahydrobenzo[b]cyclopenta[e][1,4]diazepin-10(1H)-one]
The IC50 of the first is 15-fold higher: 300 nM for the first, 20 nM for the second. The second is the more potent here.

`COc1cccc(C(=O)Nc2ccc(CN3C(=O)[C@H]4CCC[C@H]4N(C(=O)CN4C(=O)c5ccccc5C4=O)c4ccccc43)cc2)c1` (relative stereo) [Example 14, (3aR*,10aS*)-9-[4-(3-Methoxybenzamido)benzyl]-4-(phthalimidoacetyl)-2,3,3a,4,9,10a-hexahydrobenzo[b]cyclopenta[e][1,4]diazepin-10(1H)-one] and `O=C(Nc1ccc(CN2C(=O)[C@H]3CCC[C@H]3N(C(=O)CN3C(=O)c4ccccc4C3=O)c3ccccc32)cc1)c1cccc(F)c1` (relative stereo) [Example 9, (3aR*,10aS*)-9-[4-(3-Fluorobenzamido)benzyl]-4-(phthalimidoacetyl)-2,3,3a,4,9,10a-hexahydrobenzo[b]cyclopenta[e][1,4]diazepin-10(1H)-one] are the same in IC50: 200 nM for the first, 200 nM for the second.

First: O=C(Nc1ccc(CN2C(=O)[C@H]3CCC[C@H]3N(C(=O)CN3C(=O)c4ccccc4C3=O)c3ccccc32)cc1)c1ccc(Br)cc1 (relative stereo) [Example 12, (3aR*,10aS*)-9-[4-(4-Bromobenzamido)benzyl]-4-(phthalimidoacetyl)-2,3,3a,4,9,10a-hexahydrobenzo[b]cyclopenta[e][1,4]diazepin-10(1H)-one]
Second: O=C(Nc1ccc(CN2C(=O)[C@H]3CCC[C@H]3N(C(=O)CN3C(=O)c4ccccc4C3=O)c3ccccc32)cc1)c1ccc(F)cc1 (relative stereo) [Example 10, (3aR*,10aS*)-9-[4-(4-Fluorobenzamido)benzyl]-4-(phthalimidoacetyl)-2,3,3a,4,9,10a-hexahydrobenzo[b]cyclopenta[e][1,4]diazepin-10(1H)-one]
The IC50 of the first is 1.5-fold higher: 300 nM for the first, 200 nM for the second. The second is the more potent here.

`O=C(Nc1ccc(CN2C(=O)[C@H]3CCC[C@H]3N(C(=O)CN3C(=O)c4ccccc4C3=O)c3ccccc32)cc1)c1ccc2ccccc2c1` (relative stereo) [Example 21, (3aR*,10aS*)-9-[4-(2-Naphthoylamino)benzyl]-4-(phthalimidoacetyl)-2,3,3a,4,9,10a-hexahyrobenzo[b]cyclopenta[e][1,4]diazepin-10(1H)-one] and `COc1ccc(C(=O)Nc2ccc(CN3C(=O)[C@H]4CCC[C@H]4N(C(=O)CN4C(=O)c5ccccc5C4=O)c4ccccc43)cc2)cc1` (relative stereo) [Example 15, (3aR*,10aS*)-9-[4-(4-Methoxybenzamido)benzyl]-4-(phthalimidoacetyl)-2,3,3a,4,9,10a-hexahydrobenzo[b]cyclopenta[e][1,4]diazepin-10(1H)-one] are the same in IC50: 200 nM for the first, 200 nM for the second.

First: O=C(NCc1ccc(F)cc1)Nc1ccc(CN2C(=O)[C@H]3CCC[C@H]3N(C(=O)CN3C(=O)c4ccccc4C3=O)c3ccccc32)cc1 (relative stereo) [Example 31, (3aR*,10aS*)-9-[4-[3-(4-Fluorobenzyl)ureido]benzyl]-4-(phthalimidoacetyl)-2,3,3a,4,9,10a-hexahydrobenzo[b]-cyclopenta[e][1,4]diazepin-10(1H)-one]
Second: O=C(Nc1ccc(CN2C(=O)[C@H]3CCC[C@H]3N(C(=O)CN3C(=O)c4ccccc4C3=O)c3ccccc32)cc1)c1ccccc1F (relative stereo) [Example 8, (3aR*,10aS*)-9-[4-(2-Fluorobenzamido)benzyl]-4-(phthalimidoacetyl)-2,3,3a,4,9,10a-hexahydrobenzo[b]cyclopenta[e][1,4]diazepin-10(1H)-one]
The IC50 of the first is 10-fold lower: 30 nM for the first, 300 nM for the second. The first is the more potent here.

With `CCC(=O)Nc1ccc(CN2C(=O)[C@H]3CCC[C@H]3N(C(=O)CN3C(=O)c4ccccc4C3=O)c3ccccc32)cc1` (relative stereo) [Example 6, (3aR*,10aS*)-4-(Phthalimidoacetyl)-9-(4-propionamidobenzyl)-2,3,3a,4,9,10a-hexahydrobenzo[b]cyclopenta[e][1,4]diazepin-10(1H)-one] the IC50 was 800 nM.
